IC50 data for 48 molecules are collected here from US6534523B1, “Hepatitis C inhibitor tri-peptides” (Boehringer Ingelheim (Canada) Ltd., priority 1998, dated 2003).

Where two headings read alike, the source gives them in different places.

For orientation: IC50 means the concentration needed to halve the response being measured. A high value points to a need for much substance.

The assay deals with HCV NS3 protease (UniProt P26663). The format is biochemical, HCV genotype 1b. Set-up: rows headed: IC50 (μM); IC50 (μM).
HCV NS3 protease, sequence (P26663 1027-1206, other chains not shown): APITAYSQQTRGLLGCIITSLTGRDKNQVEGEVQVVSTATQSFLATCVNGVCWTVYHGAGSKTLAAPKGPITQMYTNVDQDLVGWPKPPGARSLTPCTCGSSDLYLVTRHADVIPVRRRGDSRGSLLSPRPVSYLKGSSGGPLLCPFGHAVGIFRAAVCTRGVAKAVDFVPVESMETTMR

In turn, `C=CC1CC1(NC(=O)C1CC(Oc2cc(-c3ccccc3)nc3cc(OC)ccc23)CN1C(=O)C(Nc1ccc(C#N)cc1)C(C)C)C(=O)O` (stereo not drawn) [compound 839] came in with an IC50 (Table 8) of 100 nM.

Under “Table 8”, `C=CC1CC1(NC(=O)C1CC(Oc2cc(-c3ccccc3)nc3cc(OC)ccc23)CN1C(=O)C(Nc1ccc(F)cc1)C(C)C)C(=O)O` (stereo not drawn) [compound 840] showed an IC50 of 85 nM.

The molecule `C=CC1CC1(NC(=O)C1CC(Oc2cc(-c3ccccc3C)nc3cc(OC)ccc23)CN1C(=O)C(NC(=O)OC(C)(C)C)C(C)(C)C)C(=O)O` (stereo not drawn) [compound 841] displayed a 50% inhibitory concentration (IC50) (Table 8) of 240 nM.

For the molecule `C=CC1CC1(NC(=O)C1CC(Oc2cc(-c3cccc(C)c3)nc3cc(OC)ccc23)CN1C(=O)C(NC(=O)OC(C)(C)C)C(C)(C)C)C(=O)O` (stereo not drawn) [compound 842], half-maximal inhibition (Table 8) (IC50) was put at 73 nM.

In turn, `C=CC1CC1(NC(=O)C1CC(Oc2cc(-c3ccc(C)cc3)nc3cc(OC)ccc23)CN1C(=O)C(NC(=O)OC(C)(C)C)C(C)(C)C)C(=O)O` (stereo not drawn) [compound 843] had an IC50 (Table 8) of 53 nM.

In the case of `C=CC1CC1(NC(=O)C1CC(Oc2cc(-c3ccc(OC)cc3)nc3cc(OC)ccc23)CN1C(=O)C(NC(=O)NC(C)(C)C)C(C)(C)C)C(=O)O` (stereo not drawn) [compound 844], the IC50 (Table 8) stood at 6 nM.

As for `C=CC1CC1(NC(=O)C1CC(Oc2cc(-c3ccccc3)nc3cc(OC)ccc23)CN1C(=O)C(Nc1ccc(NC(C)=O)cc1)C(C)C)C(=O)O` (stereo not drawn) [compound 845], where the note is “Table 8”, the midpoint of inhibition, the IC50, lay at 180 nM.

Turning to `C=CC1CC1(NC(=O)C1CC(Oc2cc(-c3ccccc3)nc3cc(OC)ccc23)CN1C(=O)C(Nc1ccc2c(c1)OCO2)C(C)C)C(=O)O` (stereo not drawn) [compound 846], it took 104 nM to reach half-maximal inhibition (Table 8) (IC50). Against the preceding molecule, the IC50 is about 1.7-fold lower.

As for `C=CC1CC1(NC(=O)C1CC(Oc2cc(-c3ccccc3)nc3cc(OC)ccc23)CN1C(=O)C(NC(=O)OC(C)(C)C)C1CCCCC1)C(=O)O` (stereo not drawn) [compound 847], the IC50 (Table 8) came out at 37 nM. This IC50 is about 2.8-fold lower than that of the molecule before.

`C=CC1CC1(NC(=O)C1CC(Oc2cc(-c3ccccc3)nc3cc(OC)ccc23)CN1C(=O)C(CC(C)C)NC(=O)OC(C)(C)C)C(=O)O` (stereo not drawn) [compound 848] returned an IC50 (Table 8) of 93 nM.

As for `C=CC1CC1(NC(=O)C1CC(Oc2cc(-c3ccccc3)nc3cc(OC)ccc23)CN1C(=O)C(CC(C)(C)C)NC(=O)OC(C)(C)C)C(=O)O` (stereo not drawn) [compound 849], half-maximal inhibition (Table 8) (IC50) was put at 110 nM.

`C=CC1CC1(NC(=O)C1CC(Oc2cc(-c3ccccc3)nc3cc(OC)ccc23)CN1C(=O)C(NC(=O)OC(C)(C)C)C(C)OC(C)(C)C)C(=O)O` (stereo not drawn) [compound 850] showed an IC50 (Table 8) of 63 nM.

For the molecule `C=CC1CC1(NC(=O)C1CC(Oc2cc(-c3ccccc3)nc3cc(OC)ccc23)CN1C(=O)C(NC(=O)OC(C)(C)C)C(C)OC)C(=O)O` (stereo not drawn) [compound 851], the IC50 (Table 8) came out at 120 nM. This IC50 is about 1.9-fold higher than that of the molecule before.

In turn, `C=CC1CC1(NC(=O)C1CC(Oc2cc(-c3ccccc3)nc3cc(OC)ccc23)CN1C(=O)C(NC(=O)OC(C)(C)C)C(C)OC)C(=O)O` (stereo not drawn) [compound 852] gave a concentration for half-maximal inhibition (IC50) (Table 8) of 50 nM.

Under “Table 8”, `C=CC1CC1(NC(=O)C1CC(Oc2cc(-c3ccccc3)nc3cc(OC)ccc23)CN1C(=O)C(NC(=O)OC(C)(C)C)C(C)OCc1ccccc1)C(=O)O` (stereo not drawn) [compound 853] returned an IC50 of 170 nM.

`C=CC1CC1(NC(=O)C1CC(Oc2cc(-c3ccccc3)nc3cc(OC)ccc23)CN1C(=O)C(Nc1cccc(-c2ccccc2)c1)C(C)C)C(=O)O` (stereo not drawn) [compound 854] had a concentration for half-maximal inhibition (IC50) (Table 8) of 370 nM. This IC50 is about 2.2-fold higher than that of the molecule before.

In turn, `C=CC1CC1(NC(=O)C1CC(Oc2cc(-c3ccccc3)nc3cc(OC)ccc23)CN1C(=O)C(Nc1cccc(CCO)c1)C(C)C)C(=O)O` (stereo not drawn) [compound 855] came in with an IC50 (Table 8) of 75 nM.

In the case of `C=CC1CC1(NC(=O)C1CC(Oc2cc(-c3ccccc3)nc3cc(OC)ccc23)CN1C(=O)C(Nc1ccc(CC#N)cc1)C(C)C)C(=O)O` (stereo not drawn) [compound 856], the IC50 (Table 8) was 110 nM.

As to `C=CC1CC1(NC(=O)C1CC(Oc2cc(-c3ccccc3)nc3cc(OC)ccc23)CN1C(=O)C(NC(=O)NC(C)(C)COC)C(C)(C)C)C(=O)O` (stereo not drawn) [compound 857], 11 nM corresponded to half-maximal inhibition (Table 8) (IC50).

Where the note is “Table 8”, `C=CC1CC1(NC(=O)C1CC(Oc2cc(-c3ccccc3)nc3cc(OC)ccc23)CN1C(=O)C(NC(=O)N(C)C(C)(C)C)C(C)(C)C)C(=O)O` (stereo not drawn) [compound 858] displayed an IC50 of 205 nM. Against the preceding molecule, the IC50 is about 19-fold higher.

With `C=CC1CC1(NC(=O)C1CC(Oc2cc(-c3ccccc3)nc3cc(OC)ccc23)CN1C(=O)C(NC1CCCCC1)C(C)C)C(=O)O` (stereo not drawn) [compound 859], inhibition (Table 8) was half-maximal at 830 nM (IC50).

Take `C=CC1CC1(NC(=O)C1CC(Oc2cc(-c3ccccc3)nc3cc(OC)ccc23)CN1C(=O)C(Nc1cccc(Oc2ccc(F)cc2)c1)C(C)C)C(=O)O` (stereo not drawn) [compound 860]: where the note is “Table 8”, it took 240 nM to reach half-maximal inhibition (IC50).

Where the note is “Table 8”, `C=CC1CC1(NC(=O)C1CC(Oc2cc(-c3ccccc3)nc3cc(OC)ccc23)CN1C(=O)C(Nc1cccc(CC#N)c1)C(C)C)C(=O)O` (stereo not drawn) [compound 861] registered an IC50 of 170 nM.

Where the note is “Table 8”, `C=CC1CC1(NC(=O)C1CC(Oc2cc(-c3ccccc3)nc3cc(OC)ccc23)CN1C(=O)C(Nc1cc(F)cc(F)c1)C(C)C)C(=O)O` (stereo not drawn) [compound 862] came in with an IC50 of 230 nM. This IC50 and that of the molecule before are within 1.5-fold of each other.

For the molecule `C=CC1CC1(NC(=O)C1CC(Oc2cc(-c3ccccc3)nc3cc(OC)ccc23)CN1C(=O)C(Nc1ccc2ccccc2c1)C(C)C)C(=O)O` (stereo not drawn) [compound 863], under “Table 8”, it took 300 nM to reach half-maximal inhibition (IC50).

As for `C=CC1CC1(NC(=O)C1CC(Oc2cc(-c3ccccc3)nc3cc(OC)ccc23)CN1C(=O)C(Nc1ccccc1F)C(C)C)C(=O)O` (stereo not drawn) [compound 864], the IC50 (Table 8) amounted to 450 nM.

`C=CC1CC1(NC(=O)C1CC(Oc2cc(-c3ccccc3)nc3cc(OC)ccc23)CN1C(=O)C(NC(=O)OC1CCOC1)C(C)(C)C)C(=O)O` (stereo not drawn) [compound 865]: where the note is “Table 8”, the IC50 is 20 nM.

Turning to `C=CC1CC1(NC(=O)C1CC(Oc2cc(-c3ccccc3)nc3cc(OC)ccc23)CN1C(=O)C(NC(=O)OCC(C)(C)N)C(C)(C)C)C(=O)O` (stereo not drawn) [compound 866], the half-maximal inhibitory concentration (IC50) (Table 8) was determined as 200 nM.

In turn, `C=CC1CC1(NC(=O)C1CC(Oc2cc(-c3ccccc3)nc3cc(OC)ccc23)CN1C(=O)C(NC(=O)OC1CCOC1)C(C)(C)C)C(=O)O` (stereo not drawn) [compound 867] displayed an IC50 (Table 8) of 51 nM.

In the case of `C=CC1CC1(NC(=O)C1CC(Oc2cc(-c3ccccc3)nc3cc(OC)ccc23)CN1C(=O)C(NC(=O)OC1CCCCC1)C(C)(C)C)C(=O)O` (stereo not drawn) [compound 868], the IC50 (Table 8) turned out to be 30 nM.

The molecule `C=CC1CC1(NC(=O)C1CC(Oc2cc(-c3ccccc3)nc3cc(OC)ccc23)CN1C(=O)C(NC(=O)OC1CCCC1)C(C)(C)C)C(=O)O` (stereo not drawn) [compound 869] gave an IC50 (Table 8) of 14 nM.

In the case of `C=CC1CC1(NC(=O)C1CC(Oc2cc(-c3ccccc3)nc3cc(OC)ccc23)CN1C(=O)C(NC(=O)NC(C)(C)CC)C(C)(C)C)C(=O)O` (stereo not drawn) [compound 870], for the setting “Table 8”, 9 nM corresponded to half-maximal inhibition (IC50).

Take `C=CC1CC1(NC(=O)C1CC(Oc2cc(-c3ccccc3)nc3cc(OC)ccc23)CN1C(=O)C(NC(=O)NC(C)(CC)CC)C(C)(C)C)C(=O)O` (stereo not drawn) [compound 871]: 11 nM corresponded to half-maximal inhibition (Table 8) (IC50).

As for `C=CC1CC1(NC(=O)C1CC(Oc2cc(-c3ccccc3)nc3cc(OC)ccc23)CN1C(=O)C(NC(=O)NC(C)C(C)(C)C)C(C)(C)C)C(=O)O` (stereo not drawn) [compound 872], inhibition (Table 8) was half-maximal at 5 nM (IC50).

Regarding `C=CC1CC1(NC(=O)C1CC(Oc2cc(-c3ccccc3)nc3cc(OC)ccc23)CN1C(=O)C(NC(=O)NC(C)C(C)(C)C)C(C)(C)C)C(=O)O` (stereo not drawn) [compound 873], the IC50 (Table 8) turned out to be 19 nM.

With `C=CC1CC1(NC(=O)C1CC(Oc2cc(-c3ccccc3)nc3cc(OC)ccc23)CN1C(=O)C(NC(=O)C(CC(=O)O)C1CCCCC1)C(C)(C)C)C(=O)O` (stereo not drawn) [compound 903], inhibition (Table 9) was half-maximal at 5 nM (IC50).

Under “Table 9”, `C=CC1CC1(NC(=O)C1CC(Oc2cc(-c3ccccc3)nc3cc(OC)ccc23)CN1C(=O)C(NC(=O)c1cccc(O)c1)C(C)(C)C)C(=O)O` (stereo not drawn) [compound 904] had an IC50 of 95 nM.

For the setting “Table 9”, `C=CC1CC1(NC(=O)C1CC(Oc2cc(-c3ccccc3)nc3cc(OC)ccc23)CN1C(=O)C(NC(=O)OC1CCC1)C(C)(C)C)C(=O)O` (stereo not drawn) [compound 905] had an IC50 of 29 nM.

For the setting “Table 9”, `C=CC1CC1(NC(=O)C1CC(Oc2cc(-c3ccccc3)nc3cc(OC)ccc23)CN1C(=O)C(NC(=O)NC(CC)C(C)(C)C)C(C)(C)C)C(=O)O` (stereo not drawn) [compound 906] returned an IC50 of 14 nM.

For the setting “Table 9”, `C=CC1CC1(NC(=O)C1CC(Oc2cc(-c3ccccc3)nc3cc(OC)ccc23)CN1C(=O)C(NC(=O)OC1CCSC1)C(C)(C)C)C(=O)O` (stereo not drawn) [compound 907] gave an IC50 of 25 nM. Compared with the last molecule, the IC50 is about 1.8-fold higher.

Regarding `C=CC1CC1(NC(=O)C1CC(Oc2cc(-c3ccccc3)nc3cc(OC)ccc23)CN1C(=O)C(NC(=O)c1ccccc1)C(C)(C)C)C(=O)O` (stereo not drawn) [compound 908], half-maximal inhibition (Table 9) (IC50) was put at 72 nM.

In turn, `C=CC1CC1(NC(=O)C1CC(Oc2cc(-c3ccccc3)nc3cc(OC)ccc23)CN1C(=O)C(NS(=O)(=O)c1ccccc1)C(C)(C)C)C(=O)O` (stereo not drawn) [compound 909] displayed an IC50 (Table 9) of 36 nM.

Where the note is “Table 9”, `C=CC1CC1(NC(=O)C1CC(Oc2cc(-c3ccccc3)nc3cc(OC)ccc23)CN1C(=O)C(NC(=O)OC(C)C(C)(C)C)C(C)(C)C)C(=O)O` (stereo not drawn) [compound 910] yielded an IC50 of 56 nM.

With `C=CC1CC1(NC(=O)C1CC(Oc2cc(-c3ccccc3)nc3cc(OC)ccc23)CN1C(=O)C(NC(=O)c1cccc(O)c1C)C(C)(C)C)C(=O)O` (stereo not drawn) [compound 911], half-maximal inhibition (Table 9) (IC50) was put at 39 nM. The IC50 values of the last two molecules are within 1.5-fold of each other.

Take `C=CC1CC1(NC(=O)C1CC(Oc2cc(-c3ccccc3)nc3cc(OC)ccc23)CN1C(=O)C(NS(=O)(=O)c1cccs1)C(C)(C)C)C(=O)O` (stereo not drawn) [compound 912]: the IC50 (Table 9) turned out to be 34 nM.

Consider `C=CC1CC1(NC(=O)C1CC(Oc2cc(-c3ccccc3)nc3cc(OC)ccc23)CN1C(=O)C(NC(=O)Nc1nccs1)C(C)(C)C)C(=O)O` (stereo not drawn) [compound 913], for which, for the setting “Table 9”, the IC50 stood at 30 nM. The IC50 values of the last two molecules are within 1.5-fold of each other.

With `C=CC1CC1(NC(=O)C1CC(Oc2cc(-c3ccccc3)nc3cc(OC)ccc23)CN1C(=O)C(NS(=O)(=O)c1sc(NC(C)=O)nc1C)C(C)(C)C)C(=O)O` (stereo not drawn) [compound 914], where the note is “Table 9”, the IC50 came out at 31 nM.

`C=CC1CC1(NC(=O)C1CC(Oc2cc(-c3ccccc3)nc3cc(OC)ccc23)CN1C(=O)C(NC(=O)c1ccc[nH]1)C(C)(C)C)C(=O)O` (stereo not drawn) [compound 916] showed an IC50 (Table 9) of 300 nM.
